Measured values from patent US9617282B2, “Macrocyclic compounds as IRAK4 inhibitors for the treatment of inflammatory diseases” (BIOGEN MA INC., priority 2013, dated 2017).

How the values were obtained:
[1] = target: IRAK4 (Homo sapiens (Human), UniProt Q9NWZ3); experiment: IRAK-4 biochemical kinase assay, AlphaScreen format; details: 1 nM IRAK4, 1.6 μM peptide, 10 μM ATP, 3.5 h at RT; class symbols
Experimental: The biochemical assay is in a AlphaScreen format. The kinase reaction is based on the IRAK-4 phosphorylation of a biotin labeled peptide. The phosphopeptide is incubated with anti-phosphothreonine antibody as well as streptavidin- and protein A-coated beads. Binding of the protein-A coated beads to the antibody and the streptavidin beads to the peptide, leads to an energy transfer from one bead to the other, ultimately producing a luminescent/fluorescent signal.

[2] = system: A549 cells; experiment: Cell-based assay, IL-6 ELISA quantification in IL-1 beta stimulated A549 cells; details: 2 ng/ml human IL-1 beta overnight, class symbols, read-out: Celluar Data EC50
Experimental: The cell-based assays is based on IL-6 ELISA quantification. Briefly, A549 cells are cultured in DMEM with 10% FBS medium. When cells reach 80% confluence they are trypsin treated and seeded in 96-well plate at 2.5×10^4 cells/well. Then, 20 ul of compound serial dilutions (starting at 10 uM, 10 points) are added to the cell plate; incubate for 1 hour at 37 C and stimulated with 2 ng/ml human IL-1 beta 37 C overnight. The next day 100 ul of cell supernatant per well are analyzed on a Human IL-6 Quantikine ELISA kit from R&D Systems.

Sequence of IRAK4 (Q9NWZ3 whole entry, species assumed): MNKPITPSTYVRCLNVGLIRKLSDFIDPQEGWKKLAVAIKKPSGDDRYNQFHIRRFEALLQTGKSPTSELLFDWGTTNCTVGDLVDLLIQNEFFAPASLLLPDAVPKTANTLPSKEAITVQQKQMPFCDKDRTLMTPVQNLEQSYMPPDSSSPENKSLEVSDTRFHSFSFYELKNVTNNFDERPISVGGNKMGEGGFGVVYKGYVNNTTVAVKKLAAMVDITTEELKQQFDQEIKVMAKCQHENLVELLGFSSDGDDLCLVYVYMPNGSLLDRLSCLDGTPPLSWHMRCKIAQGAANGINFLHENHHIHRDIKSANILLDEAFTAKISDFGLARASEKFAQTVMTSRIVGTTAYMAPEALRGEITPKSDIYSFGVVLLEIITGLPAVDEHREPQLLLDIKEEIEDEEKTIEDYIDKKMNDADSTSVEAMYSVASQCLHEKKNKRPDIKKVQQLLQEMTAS

| SMILES | IC50 [1] [µM] | EC50 [2] [µM] |
| --- | --- | --- |
| CN(C)CCn1cc2c(n1)C(=O)NCCOCCOc1cc(ccn1)-c1nc(cs1)C(=O)N2 [Example 111] | < 1 | > 10 |
| NC(=O)Cn1cc2c(n1)C(=O)NCCOCCOc1cc(ccn1)-c1nc(cs1)C(=O)N2 [Example 147] | < 1 | > 10 |
| Cn1cc2c(n1)C(=O)NCCOCCCOc1cc(ccn1)-c1nc(cs1)C(=O)N2 [Example 122] | < 0.1 | < 1 |
| CN(C)CCCn1cc2c(n1)C(=O)NCCOCCOc1cc(ccn1)-c1nc(cs1)C(=O)N2 [Example 138] | < 0.1 | > 10 |
| O=C1Nc2cn(CCN3CCOCC3)nc2C(=O)NCCOCCNc2cc(ccn2)-c2nc1cs2 [Example 118] | < 0.1 | < 1 |
| O=C1Nc2cn(C3CCOCC3)nc2C(=O)NCCCCOc2cc(ccn2)-c2nc1cs2 [Example 90] | < 0.1 | < 10 |
| O=C1Nc2ccccc2C(=O)NCCOCCOc2cc(ccn2)-c2nc1cs2 [Example 127] | < 0.1 | < 1 |
| O=C1Nc2cn(C3CCOCC3)nc2C(=O)NCCCCCc2cc(ccn2)-c2nc1cs2 [Example 95] | < 0.1 | < 1 |
| O=C1Nc2ccccc2OCCCCCCn2cc(cn2)-c2nc1co2 [Compound 7] | < 0.1 | < 10 |
| O=C1Nc2cn(C3CCOCC3)nc2C(=O)NCCCCCc2cc(ccn2)-c2nc1co2 [Compound 40] | < 0.1 | < 10 |
| O=C1Nc2cn(C3CCOCC3)nc2C(=O)NCCOCCCOc2cc(ccn2)-c2nc1cs2 [Example 123] | < 0.1 | < 1 |
| O=C1Nc2cn(CCN3CCOCC3)nc2C(=O)NCCOCCOc2cc(ccn2)-c2nc1cs2 [Example 112] | < 0.1 | < 10 |
| O=C1Nc2cn(C3CCOCC3)nc2C(=O)NCCOCCOc2cc(ccn2)-c2nc1cs2 [Compound 44] | < 0.1 | < 10 |
| O=C1Nc2cn(C3CCOCC3)nc2C(=O)NCCOCCNc2cc(ccn2)-c2nc1cs2 [Compound 46] | < 0.1 | < 1 |
| NC(=O)CCn1cc2c(n1)C(=O)NCCOCCOc1cc(ccn1)-c1nc(cs1)C(=O)N2 [Example 151] | < 1 | > 10 |
| O=C1Nc2cn(C3CCOCC3)nc2C(=O)NC2CC(=O)N(CCCc3cc(ccn3)-c3nc1cs3)C2=O (centres unmarked) [Example 200] | < 0.1 | < 10 |
| CC(C)(C)OC(=O)N1CCC(n2cc3c(n2)C(=O)NCCOCCOc2cc(ccn2)-c2nc(cs2)C(=O)N3)CC1 [Example 164] | < 0.1 | < 10 |
| Cn1cc2c(n1)C(=O)NCCCCOc1cc(ccn1)-c1nc(cs1)C(=O)N2 [Example 91] | < 0.1 | < 1 |
| CC(C)(C)OC(=O)N1CCN(CCn2cc3c(n2)C(=O)NCCOCCOc2cc(ccn2)-c2nc(cs2)C(=O)N3)CC1 [Example 114] | < 0.1 | > 10 |
| Cn1cc2c(n1)C(=O)NCCOCCNc1cc(ccn1)-c1nc(cs1)C(=O)N2 [Compound 45] | < 0.1 | < 1 |
| O=C1Nc2ccccc2OC(CO)CCCCNc2cc(ccn2)-c2nc1co2 (centres unmarked) [Compound 12] | < 0.1 | < 1 |
| O=C1Nc2cccnc2C(=O)NCCOCCOc2cc(ccn2)-c2nc1cs2 [Example 128] | < 0.1 | > 10 |
| O=C1Nc2ccncc2C(=O)NCCOCCOc2cc(ccn2)-c2nc1cs2 [Example 129] | < 0.1 | < 1 |
| O=C1Nc2cn(C3CCOCC3)nc2C(=O)NCCOCCCCc2cc(ccn2)-c2nc1cs2 [Example 218] | < 0.1 | < 10 |
| CC(C)(C)OC(=O)N1CCN(CCn2cc3c(n2)C(=O)NCCOCCNc2cc(ccn2)-c2nc(cs2)C(=O)N3)CC1 [Example 144] | < 0.1 | < 10 |
| CN1CCCc2cc(ccn2)-c2nc(cs2)C(=O)Nc2cn(C3CCOCC3)nc2C(=O)NCC1 [Example 169] | < 0.1 | > 10 |
| O=C1Nc2ccccc2OCCCCOCc2cc(ccn2)-c2nc1co2 [Compound 4] | < 0.1 | > 10 |
| CCOC(=O)CCn1cc2c(n1)C(=O)NCCOCCOc1cc(ccn1)-c1nc(cs1)C(=O)N2 [Example 150] | < 0.1 | > 10 |

| SMILES | IC50 [1] [µM] | EC50 [2] [µM] |
| --- | --- | --- |
| CC(C)(C)OC(=O)Cn1cc2c(n1)C(=O)NCCOCCOc1cc(ccn1)-c1nc(cs1)C(=O)N2 [Example 137] | < 0.1 | > 10 |
| Cn1cc2c(n1)C(=O)NCCCCCc1cc(ccn1)-c1nc(cs1)C(=O)N2 [Example 96] | < 0.1 | < 10 |
| O=C1Nc2cn(C3CCOCC3)nc2C(=O)NCCOCCCn2cc(cn2)-c2nc1cs2 [Example 136] | < 0.1 | < 1 |
| O=C1Nc2cn(CCN3CCCCC3)nc2C(=O)NCCOCCNc2cc(ccn2)-c2nc1cs2 [Example 119] | < 0.1 | < 1 |
| CCn1cc2c(n1)C(=O)NCCOCCOc1cc(ccn1)-c1nc(cs1)C(=O)N2 [Example 139] | < 0.1 | > 10 |
| O=C1Nc2cn(CC3CCNCC3)nc2C(=O)NCCOCCOc2cc(ccn2)-c2nc1cs2 [Example 160] | < 1 | > 10 |
| CC(C)(C)OC(=O)N1CCC(CCn2cc3c(n2)C(=O)NCCOCCOc2cc(ccn2)-c2nc(cs2)C(=O)N3)CC1 [Example 154] | < 0.1 | > 10 |
| O=C1CCNC(=O)c2csc(n2)-c2ccnc(c2)OCCOCCN1 [Example 126] | < 1 | > 10 |
| O=C1NC[C@@H]2CC[C@@H](C2)OCCCNc2cc(ccn2)-c2nc1cs2 [Example 83] | < 0.1 | < 10 |
| O=C1Nc2cn(CCN3CCCCC3)nc2C(=O)NCCOCCOc2cc(ccn2)-c2nc1cs2 [Example 116] | < 0.1 | > 10 |
| Cn1cc2c(n1)C(=O)NCCCCCCNc1cc(ccn1)-c1nc(co1)C(=O)N2 [Compound 32] | < 0.1 | < 1 |
| CN1CCN(CCn2cc3c(n2)C(=O)NCCOCCOc2cc(ccn2)-c2nc(cs2)C(=O)N3)CC1 [Example 113] | < 0.1 | < 10 |
| Cn1cc2c(n1)C(=O)NCCOCCCCc1cc(ccn1)-c1nc(cs1)C(=O)N2 [Example 217] | < 0.1 | < 10 |
| Cn1cc2c(n1)C(=O)NCCCCNc1cc(ccn1)-c1nc(cs1)C(=O)N2 [Example 131] | < 0.1 | < 1 |
| CNC(=O)Cn1cc2c(n1)C(=O)NCCOCCOc1cc(ccn1)-c1nc(cs1)C(=O)N2 [Example 161] | < 0.1 | > 10 |
| O=C1Nc2ccccc2OCCCCCNc2cc(ccn2)-c2nc1co2 [Compound 2] | < 0.1 | < 1 |
| CN(C)CCn1cc2c(n1)C(=O)NCCOCCNc1cc(ccn1)-c1nc(cs1)C(=O)N2 [Example 117] | < 0.1 | < 10 |
| O=C1Nc2cnn(CCN3CCNCC3)c2C(=O)NCCOCCOc2cc(ccn2)-c2nc1cs2 [Example 109] | < 10 | > 10 |
| CN(C)CCNC(=O)c1ccc2c(c1)NC(=O)c1csc(n1)-c1ccnc(c1)NCCCCCO2 [Compound 16] | < 0.1 | > 10 |
| Cn1cc2c(n1)C(=O)NCCC/C=C/CCCNc1cc(ccn1)-c1nc(co1)C(=O)N2 [Example 140] | < 0.1 | < 1 |
| Cn1cc2c(n1)C(=O)NCCOCCOc1cc(ccn1)-c1nc(cs1)C(=O)N2 [Compound 43] | < 0.1 | < 10 |
| CN(C)C(=O)Cn1cc2c(n1)C(=O)NCCOCCOc1cc(ccn1)-c1nc(cs1)C(=O)N2 [Example 166] | < 1 | > 10 |
| O=C1Nc2cn(CCN3CCNCC3)nc2C(=O)NCCOCCNc2cc(ccn2)-c2nc1cs2 [Example 145] | < 0.1 | < 10 |
| CN1CCC(Cn2cc3c(n2)C(=O)NCCOCCOc2cc(ccn2)-c2nc(cs2)C(=O)N3)CC1 [Example 158] | < 1 | > 10 |
| CN1CCC(CCn2cc3c(n2)C(=O)NCCOCCOc2cc(ccn2)-c2nc(cs2)C(=O)N3)CC1 [Example 153] | < 0.1 | > 10 |
| Cn1cc2c(n1)C(=O)NCCCCOc1cc(ccn1)-c1nc(co1)C(=O)N2 [Compound 34] | < 0.1 | < 1 |
| CN1CCN(CCn2ncc3c2C(=O)NCCOCCNc2cc(ccn2)-c2nc(cs2)C(=O)N3)CC1 [Example 142] | < 1 | > 10 |
